Assay results from patent publication US10188743B2, “Cytisine-linked isoflavonoid antineoplastic agents for the treatment of cancer” (UNIVERSITY OF KENTUCKY RESEARCH FOUNDATION, priority 2016, dated 2019).

Test system: LS174T cells
Experiment: Seahorse XF assay (OCR, ECAR)
Format: cell-based
From the text: We further characterized the effects of cytisine-linked isoflavonoid 10c on energy metabolism using a Seahorse XF assay (FIG. 4D-F) that measured oxygen consumption rate (OCR), which was an indicator of mitochondrial respiration, and measured extracellular acidification rate (ECAR), which was largely the result of glycolysis. […] Similar results were found in DLD-1 colon cancer cells and PC-3 prostate cancer cells (FIGS. 8 and 9). These OCR findings were consistent with the prior evaluation of these cytisine-linked isoflavonoids that targeted the hydratase activity in HSD17B4, inhibited VLCFA beta-oxidation, depressed acetyl CoA generation, decreased the ratio of ATP/AMP, and triggered AMPK activation (FIG. 5).
Seahorse assay: 3×10^4 cells were seeded in XF96 Cell Culture microplate (80 μL of 3.75×10^5 cells/m:). On the next day, cells were treated with DMSO or inhibitors and analyzed using the Seahorse analyzer in Redox Metabolism Shared Resource Facility (RM SRF) at the Markey Cancer Center.

In the case of `O=c1c(-c2ccc(Cl)cc2)coc2cc(OCCN3C[C@@H]4C[C@@H](C3)c3cccc(=O)n3C4)ccc12` [Compound 10c, (1 S,5S)-3-(2-((3-(4-chlorophenyl)-4-oxo-4H-chromen-7-yl)oxy)ethyl)-3,4,5,6-tetrahydro-1H-1,5-methanopyrido[1,2-a][1,5]diazocin-8(2H)-one], the respiration rates is reported as “significantly reduced the respiration rates” and the “levels of ATP production” value (OCR and ECAR assays) is reported as “reduced the levels of ATP production”.
